Columns and labels:
SUDHL6 cells = test: C-11 BODIPY lipid peroxidation measurement (flow cytometry); type: cell-based; details: different concentrations of IKE
Procedure: 0.20 million SUDHL-6 cells were seeded in sixc^− well plates and treated with DMSO, IKE, or Fer-1 at specific concentration. The final cell density of 0.05 million cells/mL. After 24 h, cells were harvested by centrifuging at 300×g for 5 min. Cells were resuspended in 500 μL HBSS containing 2 μM C11-BODIPY (BODIPY 581/591 C11) (Thermo Fisher Scientific, D3861) and incubated at 37° C. for 15 min. Cells were pelleted and resuspended in HBSS. Fluorescence intensity was measured on the FL1 channel with gating to record live cells only (gate constructed from DMSO treatment group). A minimum of 10,000 cells were analyzed per condition.

[1] = test system: SUDHL6 xenograft tumor tissue; test: Immunofluorescence on frozen tumor sections from efficacy study (COX-2, MDA, 8-OHdG); type: in vivo, NCG mice
Procedure: NCG mice, 6-weeks old, were injected with 10 million SUDHLO-6 cells subcutaneously. The mice were treated after the tumor size reached 100 mm^3. Mice were separated randomly into treatment groups and dosed with 23 mg/kg IKE, 40 mg/kg IKE, 23 mg/kg IKE PEG-PLGA nanoparticles (equal to 700 mg/kg PEG-PLGA), vehicle 1 (based on volume), and vehicle 2 (700 mg/kg PEG-PLGA) once daily by IP for 14 days. Tumor volume was measured daily with electronic caliper and calculated using the formula: 0.5×length×width^2. 3 h after the final dosage, mice were euthanized with CO2 and tumor tissue was dissected, weighed, divided into 4-6 segments, frozen, and stored at −80° C. Tumor volume change was analyzed in Prism using one-way ANOVA. Tumor tissues were analyzed as described in the RT-qPCR, immunofluorescence, TBARS, and lipidomics sections below.
Tumor tissues were fixed in 4% paraformaldehyde (PFA) for 24 h at 4° C. followed by washing with PBS three times. The tissues were perfused in 30% sucrose for 24 h at 4° C. for cryo-protection. The samples were embedded in OCT cryostat sectioning medium, and then moved directly into a cryostat. After equilibration of temperature, frozen tumor tissues were cut into 5 μm thick sections. Tissue sections were mounted on to poly-L-lysine coated slides by placing the cold sections onto warm slides. Slides were stored at −80° C. until staining. For staining, slides were warmed to room temperature followed by washing with PBS twice. A hydrophobic barrier pen was used to draw a circle on each slide. The slides were permeabilized with PBS/0.4% Triton X-100 twice before non-specific-binding blocking by incubating the sections with 10% goat serum (ThermoFisher 50197Z) for 30 minutes at room temperature. The sections were separately incubated with mouse anti-MDA mAb 1F83 (1:1000 dilution), anti-cyclooxygenase 2 (COX 2, AKA PTGS2) antibody (Abcam, ab15191, 1:200 dilution), or anti-8-OH-dG (DNA/RNA damage) antibody (Abcam, ab62623, 1:200 dilution) overnight at 4° C. in humidified chambers. Sections were washed with PBST for twice before incubating with goat anti-mouse IgG H&L (Alexa Fluor 647) (Abcam, ab150115, 1:1000 dilution) or goat anti-rabbit IgG H&L highly cross-absorbed secondary antibody (Alexa Fluor488, Thermo Fisher Scientific, A-11034, 1:1000) at room temperature for 1 h. Slides were then washed twice with PBST. ProLong Diamond antifade mountant with DAPI (ThermoFisher P36962) was added onto slides, which were then covered with the coverslips, sealed by clear fingernail polish and observed under confocal microscopy. All images were captured on a Zeiss LSM 800 confocal microscope at Plan-Apochromat 63×/1.40 Oil DIC objective with constant laser intensity for all analyzed samples. The intensity above threshold of the fluorescent signal of the bound antibodies was analyzed using NIH ImageJ software. Data were expressed as fold change comparing with the vehicle.

SUDHL 7 = test: DLBCL cell line sensitivity to IKE (CellTiter-Glo viability, 24 h); type: cell-based; details: SUDHL 7, 24 hours; read-out: cell line sensitivity to IKE (IC50 class)
Procedure: (§1) DLBCL cells were plated at 10,000 cells per well in white 384-well plates (32 μL per well) in technical duplicates and incubated overnight. The cells were then treated with 8 μL medium containing a two-fold dilution series of vehicle (DMSO), IKE (starting from 100 μM) with or without Fer-1 (starting from 200 μM). After 24 h incubation, 40 μL of 50% CellTiter-Glo (Promega) 50% cell culture medium was added to each well and incubated at room temperature with shaking for 15 min. Luminescence was measured using a Victor X5 plate reader (PerkinElmer). All cell viability data were normalized to the DMSO vehicle condition. Experiments were performed three independent times with different passages for each cell line.

SUDHL 6 = test: as above; type: cell-based; details: Homo sapiens, SU-DHL-6; SUDHL 6, 24 hours; read-out: cell line sensitivity to IKE (IC50 class)
Procedure: as §1

LY 8 = test: as above; type: cell-based; details: LY 8, 24 hours; read-out: cell line sensitivity to IKE (IC50 class)
Procedure: as §1

U937 = test: as above; type: cell-based; details: Homo sapiens, U-937; U937, 24 hours; read-out: cell line sensitivity to IKE (IC50 class)
Procedure: as §1

SUDHL 8 = test: as above; type: cell-based; details: SUDHL 8, 24 hours
Procedure: as §1

DOHH 2 = test: as above; type: cell-based; details: Homo sapiens; DOHH 2, 24 hours; read-out: cell line sensitivity to IKE (IC50 class)
Procedure: as §1

A3/KAW = test: as above; type: cell-based; details: read-out: cell line sensitivity to IKE (IC50 class)
Procedure: as §1

SUDHL 9 = test: as above; type: cell-based; details: SUDHL 9, 24 hours
Procedure: as §1

[2] = test system: SUDHL6 xenograft tumor tissue; test: Reduced glutathione measurement in mouse tumor tissue after one IKE dose; type: in vivo, NCG mice; details: single dose IKE 50 mg/kg, starting at 4 hours
[3] = test system: SUDHL6 xenograft tumor tissue; test: Western blot of caspase-3 in tumor tissue from efficacy study; type: in vivo, NCG mice; details: treatment for 14 days
Procedure: 10-25 mg tumor tissue was placed into a 1.5 mL Eppendorf microfuge tube, and the sample was placed on dry ice until use. 20 μL/mg ice cold RIPA buffer with cocktail protease inhibitor (Roche) was added. The tumor tissue was homogenized at speed 5 for 30 sec using Bead Ruptor 4. The sample was centrifuged at 4° C. at 1,600×g for 10 min. The sample was kept on ice and the supernatant used for analysis. Caspase-3 antibody which could recognize both full-length caspase-3 and cleaved caspase-3 was used. α-Tubulin antibody was used as the reference.

CC(C)Oc1ccc(C(=O)Cn2ccnc2)cc1-n1c(CN2CCN(C(=O)COc3ccc(Cl)cc3)CC2)nc2ccccc2c1=O [IKE, Imidazole ketone erastin]
lipid ROS (C11-BODIPY) (SUDHL6 cells): dose-dependent increase in lipid ROS | increase in 8-OHdG intensity (immunofluorescence) ([1]; 23 mg/kg daily for 14 days): 1.8 fold | increase in COX-2 intensity (immunofluorescence) ([1]; 23 mg/kg daily for 14 days): 2.0 fold | increase in MDA intensity (immunofluorescence) ([1]; 23 mg/kg daily for 14 days): 1.8 fold | increase in 8-OHdG intensity (immunofluorescence) ([1]; 40 mg/kg daily for 14 days): 2.2 fold | increase in COX-2 intensity (immunofluorescence) ([1]; 40 mg/kg daily for 14 days): 2.8 fold | increase in MDA intensity (immunofluorescence) ([1]; 40 mg/kg daily for 14 days): 2.0 fold | IC50 (SUDHL 7): > 10 µM | IC50 (SUDHL 6): < 0.1 µM | IC50 (LY 8): < 0.1 µM | IC50 (U937): > 10 µM | cell line sensitivity to IKE (IC50 class) (SUDHL 8): moderately resistant | IC50 (DOHH 2): < 0.1 µM | IC50 (A3/KAW): > 10 µM | cell line sensitivity to IKE (IC50 class) (SUDHL 9): moderately resistant | GSH depletion in tumor tissue [2]: over 50% | cleaved-caspase 3 in tumor tissue (western blot) [3]: no cleaved-caspase 3 increase

— patent publication US20210267978A1, “NANOPARTICLE FORMULATIONS OF IKE AND METHODS OF USE THEREOF” (The Trustees of Columbia University in the City of New York, priority 2018, published 2021)
